Reference: patent publication EP0367189A2, “Sugar phosphates and sulfonates of epipodophyllotoxin glucosides” (Bristol-Myers Squibb Company, priority 1988, dated 1990)
Values after ≈ are worked out from the molar mass of the structure shown.

Key:
P388 leukemia = test: Antitumor activity against murine transplantable P388 leukemia (survival); assay type: in vivo, CDF₁ mice; settings: maximum % T/C only, at the dose giving the maximum effect (dose column of Table I); single intraperitoneal dose on day 1; observed 45 days; 10⁶ P388 cells ip; % T/C of 125 or greater = significant
Method: Representative compounds of the present invention were evalnated for anti tumor activity against murine transplantable P388 leukemia. Five-week old female CDF₁ mice were inoculated intraperitoneally with 0.4 ml of diluted ascitic fluid containing 10⁶ lymphocytic leukemia P388 cells. […] The percent increase of median survival time (MST) of treated animals over that of untreated control animals was determined and reported as % T/C. Compounds showing % T/C values of 125 or greater are considered to have significant antitumor activity. Table I presents the results of the in vivo evaluation; only the maximum % T/C and the dose giving the maximum effects are reported.

B16 melanoma cells = test: In vitro cytotoxicity against B16 melanoma cells (neutral red staining); assay type: cell-based; settings: 72 hours at 37°C, colorimetric at 540 nm, IC₅₀ higher than 100 µg/ml = lack of cytotoxic activity
Method: Cytotoxicity of compounds of the present invention was studied using B16 melanoma cells. B16 melanoma cells were grown to the logarithmic phase in the enriched Eagle minimum essential medium supplemented with fetal calf serum (10%) and kanamycin (60 mcg/ml). The tumor cells were harvested and implanted into wells of the 96-well microtiter plate with test materials at the inoculum size of 3.0 x 10⁴ cells/ml. They were incubated at 37°C in humidified atmosphere of 5% CO₂ and 95% air for 72 hours. The cytotoxic activity against the above cell line was determined colorimetrically at 540 nm after staining viable cells with neutral red and is reported in terms of the concentration that inhibits 50% of cell growth (IC₅₀). IC₅₀ values of higher than 100 µg/ml are generally considered as indicating lack of cytotoxic activity.

[1] = biological target: T1, prostatic acid phosphatase (Homo sapiens, UniProt P15309); settings: Seligman et al, Cancer Chemotherapy Reports Part I, 1975; cited from earlier work
T1 sequence (P15309 33-386): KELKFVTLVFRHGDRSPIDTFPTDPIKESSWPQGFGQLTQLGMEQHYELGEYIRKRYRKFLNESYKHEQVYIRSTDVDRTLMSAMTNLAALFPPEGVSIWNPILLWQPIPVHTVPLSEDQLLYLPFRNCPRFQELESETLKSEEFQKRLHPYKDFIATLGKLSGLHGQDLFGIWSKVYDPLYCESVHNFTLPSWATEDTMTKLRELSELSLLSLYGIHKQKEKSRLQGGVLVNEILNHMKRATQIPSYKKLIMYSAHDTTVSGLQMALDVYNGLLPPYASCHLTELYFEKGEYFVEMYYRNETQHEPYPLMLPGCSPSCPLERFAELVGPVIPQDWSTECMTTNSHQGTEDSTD

[2] = Seligman et al, Cancer Chemotherapy Reports Part I, 1975; cited from earlier work

Compound: disodium etoposide 2˝ -phosphate [Compound XII]
- %T/C of MST (P388 leukemia): 120%
- IC₅₀ (B16 melanoma cells): 20 µg/mL

Compound: etoposide 3˝-diphenyl phosphate [XXVI]
- %T/C of MST (P388 leukemia): 130%
- IC₅₀ (B16 melanoma cells): 8.0 µg/mL

Compound: sodium bis(etoposide-3˝-)phosphate [Compound XIII]
- %T/C of MST (P388 leukemia): 125%
- IC₅₀ (B16 melanoma cells): 37 µg/mL

Compound: etoposide 3˝-tosylate [Compound XVII]
- %T/C of MST (P388 leukemia): 195%
- IC₅₀ (B16 melanoma cells): 0.07 µg/mL

Compound: etoposide 2˝-tosylate [Compound XVIII]
- %T/C of MST (P388 leukemia): 115%
- IC₅₀ (B16 melanoma cells): 5.4 µg/mL

Compound: COc1cc([C@@H]2c3cc4c(cc3[C@@H](O[C@@H]3O[C@@H]5CO[C@@H](C)O[C@H]5[C@H](O)[C@H]3O)[C@H]3COC(=O)[C@H]23)OCO4)cc(OC)c1O [Etoposide, etoposide, reference compound]
- %T/C of MST (P388 leukemia): 250%
- IC50 (B16 melanoma cells; Mus musculus): 0.21 µg/mL (≈ 0.357 µM)

Compound: etoposide 2˝-mesylate [Compound XXIV]
- %T/C of MST (P388 leukemia): 130%
- IC₅₀ (B16 melanoma cells): 29 µg/mL

Compound: etoposide 3˝-mesylate [Compound XXIII]
- %T/C of MST (P388 leukemia): 175%
- IC₅₀ (B16 melanoma cells): 0.32 µg/mL

Compound: etoposide 2˝,3˝-ditosylate [Compound XIX]
- %T/C of MST (P388 leukemia): 100%
- IC₅₀ (B16 melanoma cells): 30 µg/mL

Compound: podophyllotoxin phosphate disodium salt
- hydrolysis by prostatic acid phosphatase [1]: not hydrolyzed
- toxicity over the parent podophyllotoxin [2]: did not show reduced toxicity

Compound: disodium etoposide 3˝-phosphate [Compound XI]
- %T/C of MST (P388 leukemia): 185%
- IC₅₀ (B16 melanoma cells): 2.2 µg/mL
